Measured values as given in patent US20250387399A1, “TREATMENT OF A SELECTIVE POPULATION OF PATIENTS HAVING DEMENTIA WITH LEWY BODIES” (EIP Pharma, LLC, priority 2021, published 2025).

How the values were obtained:
Format in all cases: in vivo, human
[1] = system: patients with mild-to-moderate DLB; test: AscenD-LB phase 2 study: Timed Up and Go (TUG) test
Description: (§1) With the objective of uniformly achieving a target average plasma drug concentration of 20 nM patients, dosing regimen after randomization to neflamapimod or placebo was based on weight: • Weight<80 kg: 40 mg neflamapimod capsule or matching placebo capsule BID • Weight≥80 kg: 40 mg neflamapimod capsule or matching placebo capsule TID
(§2) As a result, efficacy analyses compared: (1) all neflamapimod (i.e., including 40 mg BID and 40 mg TID) vs. placebo; (2) 40 mg TID (dose group that achieved target concentration) vs. placebo; and (3) 40 mg TID vs. placebo TID.
(§3) Plasma ptau181 levels were determined by SIMOA pTau181 Assay (Quanterix) at the VU Medical Center, where the in-house defined cut-off for tau pathology was set at 2.2 pg/mL.

[2] = system: patients with mild-to-moderate DLB; test: AscenD-LB phase 2 study: International Shopping List Test (ISLT); conditions: patients with baseline plasma ptau181 <2.2 pg/mL, 16 weeks
Description: as §1, §2, §3

[3] = system: patients with mild-to-moderate DLB; test: AscenD-LB phase 2 study: Clinical Dementia Rating Scale sum-of-boxes (CDR-SB)
Description: as §1, §2, §3

[4] = system: patients with mild-to-moderate DLB; test: AscenD-LB phase 2 study: treatment effect by baseline plasma ptau181 status (all major endpoints)
Description: Up to half of patients with DLB have tau pathology, or “AD copathology” (van der Lee et al, 2021) and such co-pathology may impact response to cholinesterase inhibitors (Graff-Radford et al, 2012). In patients with DLB, plasma phospho-tau (either ptau217 or ptau181) correlates with tau-PET signal in the temporal cortex and predicts abnormal tau-PET status and CSF β-amyloid status (Hall et al, 2021). Accordingly, plasma ptau181 levels were assessed in plasma samples obtained during the screening phase of AscenD-LB. The results on the association of tau pathology to treatment outcome in AscenD-LB are described below.
as §3

[5] = AscenD-LB phase 2 study: plasma drug concentration
Description: as §1
Trough plasma drug concentrations 50% lower with 40 mg BID vs. 40 mg TID

[6] = system: patients with mild-to-moderate DLB; test: AscenD-LB phase 2 study: Attention Composite z-score
Description: as §1, §2, §3

[7] = system: patients with mild-to-moderate DLB; test: AscenD-LB phase 2 study: DLB specific Neuropsychological Test Battery (NTB) z-score
Description: as §1, §2, §3

[8] = 40 mg TID vs. all placebo, patients with baseline plasma ptau181 <2.2 pg/mL, 16 weeks
[9] = 40 mg TID vs. placebo TID, baseline plasma ptau181 < 2.2 pg/mL
[10] = 40 mg TID vs. placebo TID, patients with baseline plasma ptau181 <2.2 pg/mL, 16 weeks
[11] = 40 mg TID vs. placebo, baseline plasma ptau181 < 2.2 pg/mL
[12] = all neflamapimod (40 mg BID and TID) vs. placebo, baseline plasma ptau181 < 2.2 pg/mL
[13] = overall population, 91-patient, 16-week study, main analysis

O=c1ncn2nc(Sc3ccc(F)cc3F)ccc2c1-c1c(Cl)cccc1Cl [neflamapimod, 5-(2,6-dichlorophenyl)-2-(2,4-difluorophenylthio)-6H-pyrimido [1,6-b]pyridazin-6-one]
TUG, difference vs. placebo (LMMRM) [1, 8]: -3.1 s | Timed up and Go, Effect size, improvement in neflamapimod 40 mg TID vs. placebo TID [1, 9]: 0.70 | TUG, difference vs. placebo TID (LMMRM) [1, 10]: -3.5 s | Timed up and Go, Effect size, improvement in neflamapimod 40 mg TID vs. placebo [1, 11]: 0.74 | Timed up and Go, Effect size, improvement in all neflamapimod vs. placebo [1, 12]: 0.40 | motor function assessed by TUG test, relative to placebo [1, 13]: significant improvement | ISLD immediate recall, difference vs. placebo (LMMRM) ([2]; 40 mg TID vs. all placebo): 2.1 words | ISLD recognition, difference vs. placebo (LMMRM) ([2]; 40 mg TID vs. all placebo): 1.4 words | ISLD immediate recall, difference vs. placebo TID (LMMRM) ([2]; 40 mg TID vs. placebo TID): 2.3 words | ISLD recognition, difference vs. placebo TID (LMMRM) ([2]; 40 mg TID vs. placebo TID): 0.9 words | CDR-SB, difference vs. placebo (LMMRM) [3, 8]: −0.60 points | CDR-SB, Effect size, improvement in neflamapimod 40 mg TID vs. placebo TID [3, 9]: 0.98 | CDR-SB, difference vs. placebo TID (LMMRM) [3, 10]: −0.93 points | CDR-SB, Effect size, improvement in neflamapimod 40 mg TID vs. placebo [3, 11]: 0.70 | CDR-SB, Effect size, improvement in all neflamapimod vs. placebo [3, 12]: 0.58 | cognition and function assessed by CDR-SB, relative to placebo [3, 13]: significant improvement | treatment effect on NTB z-score, attention z-score, TUG, CDR-SB (descriptive evaluation) ([4]; patients below the threshold (2.2 pg/mL) for having tau pathology): positive treatment effects | treatment effect on NTB z-score, attention z-score, TUG, CDR-SB (descriptive evaluation) ([4]; patients with baseline plasma ptau181 above the threshold (2.2 pg/mL), i.e. with tau pathology): no discernible treatment effect | magnitude of treatment effect relative to placebo for the individual endpoints, ptau181 <2.2 pg/mL population compared to overall population ([4]; plasma ptau181 <2.2 pg/mL at baseline vs. overall population): 1.5 to 2.0 fold | shortfall from target average plasma drug concentration (20 nM) ([5]; 40 mg BID (weight <80 kg)): 30-40% | trough plasma drug concentrations, lower with 40 mg BID vs. 40 mg TID ([5]; 40 mg BID vs. 40 mg TID): 50% | attainment of target average plasma drug concentration (20 nM) ([5]; 40 mg TID (weight ≥80 kg)): achieved target plasma drug concentration | attention composite z-score, difference vs. placebo (LMMRM) [6, 8]: 0.42 z-score | Attention, Effect size, improvement in neflamapimod 40 mg TID vs. placebo TID [6, 9]: 0.70 | attention composite z-score, difference vs. placebo TID (LMMRM) [6, 10]: 0.46 z-score | Attention, Effect size, improvement in neflamapimod 40 mg TID vs. placebo [6, 11]: 0.78 | Attention, Effect size, improvement in all neflamapimod vs. placebo [6, 12]: 0.29 | NTB z-score, difference vs. placebo (LMMRM) ([7]; 40 mg TID vs. all placebo, patients with baseline plasma ptau181 <2.2 pg/mL, 16 weeks, not significant): 0.21 | NTB, Effect size, improvement in neflamapimod 40 mg TID vs. placebo TID [7, 9]: 0.61 | NTB z-score, difference vs. placebo TID (LMMRM) ([7]; 40 mg TID vs. placebo TID, patients with baseline plasma ptau181 <2.2 pg/mL, 16 weeks, not significant): 0.25 | NTB, Effect size, improvement in neflamapimod 40 mg TID vs. placebo [7, 11]: 0.56 | NTB, Effect size, improvement in all neflamapimod vs. placebo [7, 12]: 0.15 | cognition assessed by NTB, relative to placebo [7, 13]: significant improvement
